From patent US8080264B2, “Natural composition for curing hepatitis-B, methods for making the same and pharmaceutical formulations thereof” (Himalaya Global Holdings Ltd., priority 2004, dated 2011)

Test system: HepG2 cells
Experiment: Hepatoprotective effects in vitro against TBH oxidative damage
Conditions: MTT, TBH challenge

Compound: CC(C)(C)OO [TBH, Tertiary Butyl Hydro peroxide]
- Survival (%): 52.53%
